Assay results from patent publication US4331661A, “Bombesin analogs” (The Salk Institute for Biological Studies, priority 1980, dated 1982).
Non-standard residues stand in square brackets, D forms with d. Residues, ends and D or L forms follow the SMILES beside them. d(pGlu) = O=C1CC[C@H](C(=O)O)N1

Assays:
[1] = system: Male Sprague-Dawley-CD rats; assay: Rise in plasma glucose after the 60 minute core temperature measurement; format: in vivo, rat; parameters: concentration or dose not given beside the values; settings: rise in plasma glucose relative to Bombesin (= 100), after intracisternal injection
Method: Male Sprague-Dawley-CD rats weighing 180-200 grams each were housed in temperature and humidity controlled quarters. The rats were fed a standard rat food ration and tap water ad libitum. After being anesthetized with ether, peptides were injected into the cisterna magna of the brain of each rat. The peptides were dissolved in artificial CSF or distilled water. Ten microliters of a peptide solution containing the specified amounts of the peptide were injected. Immediately following the injection, the animals were transferred to a cold room maintained at 4° C. Rectal temperatures were recorded with a thermo-probe at 60 minutes following injection. All experiments were carried out in a randomized block design. Following analyses of variance, differences between groups were determined by the multiple range test of Dunnet and Duncan using the computer program Exbiol.
Following the 60 minute measurement of core temperature, the rats were rapidly decapitated, blood was collected and plasma levels of glucose were determined using a Beckman glucose analyzer. The results in causing a rise in plasma glucose relative to Bombesin are set forth hereinafter in Table III.

[2] = system: Male Sprague-Dawley-CD rats; assay: Thermoregulative properties: core (rectal) temperature of rats at 4° C. after intracisternal injection; format: in vivo, rat; settings: 60 minutes following injection, control 36.5°
Method: The thermoregulative properties of the peptides were determined as follows:

mammals = settings: compared with neurotensin and bombesin; cited from earlier work

## CSCC[C@H](NC(=O)[C@H](CC(C)C)NC(=O)[C@H](Cc1cnc[nH]1)NC(=O)CNC(=O)[C@@H](NC(=O)[C@H](C)NC(=O)[C@H](Cc1c[nH]c2ccccc12)NC(=O)[C@H](CCC(N)=O)NC(=O)[C@H](CC(N)=O)NC(=O)CNC(=O)[C@H](CC(C)C)NC(=O)[C@H](CCCN=C(N)N)NC(=O)[C@H](CCC(N)=O)NC(=O)[C@@H]1CCC(=O)N1)C(C)C)C(N)=O [Bombesin]
[1]
  POTENCY (Plasma Glucose): 100
[2]; dosage 7 nanomoles
  CORE TEMPERATURE: 32.1 °C
[2]; dosage 7 picomoles
  CORE TEMPERATURE: 34.7 °C
[2]; dosage 20 picomoles
  CORE TEMPERATURE: 33.8 °C
[2]; dosage 70 picomoles
  CORE TEMPERATURE: 33 °C

## CSCC[C@H](NC(=O)[C@H](CC(C)C)NC(=O)[C@H](Cc1c[nH]cn1)NC(=O)CNC(=O)[C@@H](NC(=O)[C@H](C)NC(=O)[C@H](Cc1c[nH]c2ccccc12)NC(=O)[C@H](Cc1c[nH]cn1)NC(C)=O)C(C)C)C(N)=O [Peptide No. 1]
[1]
  POTENCY (Plasma Glucose): 100
[2]; dosage 1 nanomole
  CORE TEMPERATURE: 32.6 °C
[2]; dosage 10 picomoles
  CORE TEMPERATURE: 34.3 °C
[2]; dosage 100 picomoles
  CORE TEMPERATURE: 33.2 °C

## CSCC[C@H](NC(=O)[C@H](CC(C)C)NC(=O)[C@H](Cc1c[nH]cn1)NC(=O)[C@@H](C)NC(=O)[C@@H](NC(=O)[C@H](C)NC(=O)[C@H](Cc1c[nH]c2ccccc12)NC(=O)[C@H](C)NC(C)=O)C(C)C)C(N)=O [Peptide No. 2] (Ac-AWAV[dA]HLM-NH2)
[1]
  POTENCY (Plasma Glucose): 150
[2]; dosage 1 nanomole
  CORE TEMPERATURE: 30.4 °C
[2]; dosage 10 picomoles
  CORE TEMPERATURE: 34.3 °C
[2]; dosage 100 picomoles
  CORE TEMPERATURE: 31.9 °C

## CSCC[C@H](NC(=O)[C@H](CC(C)C)NC(=O)[C@H](Cc1c[nH]cn1)NC(=O)[C@@H](C)NC(=O)[C@@H](NC(=O)[C@H](C)NC(=O)[C@H](Cc1c[nH]c2ccccc12)NC(=O)[C@@H](CCC(N)=O)NC(C)=O)C(C)C)C(N)=O [Peptide No. 3]
[1]
  POTENCY (Plasma Glucose): 150
[2]; dosage 10 picomoles
  CORE TEMPERATURE: 32.3 °C
[2]; dosage 100 picomoles
  CORE TEMPERATURE: 31.9 °C

## CSCC[C@H](NC(=O)[C@H](CC(C)C)NC(=O)[C@H](Cc1c[nH]cn1)NC(=O)CNC(=O)[C@@H](NC(=O)[C@H](C)NC(=O)[C@H](Cc1c[nH]c2ccccc12)NC(=O)[C@H](C)NC(C)=O)C(C)C)C(N)=O [Peptide No. 4]
[1]
  POTENCY (Plasma Glucose): 40
[2]; dosage 10 picomoles
  CORE TEMPERATURE: 35.1 °C
[2]; dosage 100 picomoles
  CORE TEMPERATURE: 33.2 °C

## [d(pGlu)]WAV[dA]HLM-NH2
mammals
  potency (analgesic and thermoregulative effects): more potent than neurotensin, it is less potent than bombesin
